Data reported in patent US12077503B2, “Substituted cyclic amides and their use as herbicides” (FMC CORPORATION, priority 2015, dated 2024).

How the values were obtained:
Format in all cases: in vivo
[1] = test system: barnyardgrass (Echinochloa crus-galli); assay: Test G Pre-Emergence Protocol; conditions: Echinochloa crus-galli, pre-emergence, 312 h, evaluated after 13 days
In short: (§1)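 Herbicidal effect was rated 13 days post-application on a scale where 100 equals total damage. Spraying took place the day after sowing, using 15.625, 62.5 or 250 g/ha of compound in a 50:50 acetone/water solution with 0.5% Tween 20.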

corn (Zea mays) [2] = assay: Test G Pre-Emergence Protocol; conditions: Zea mays, pre-emergence, 312 h, evaluated after 13 days
In short: as §1

[3] = test system: giant foxtail (Setaria faberi); assay: Test G Pre-Emergence Protocol; conditions: Setaria faberi, pre-emergence, 312 h, evaluated after 13 days
In short: as §1

[4] = test system: ivy-leaved morning glory (Ipomoea hederacea); assay: Test G Pre-Emergence Protocol; conditions: Ipomoea, pre-emergence, 312 h, evaluated after 13 days
In short: as §1

[5] = test system: redroot pigweed (Amaranthus retroflexus); assay: Test G Pre-Emergence Protocol; conditions: Amaranthus retroflexus, pre-emergence, 312 h, evaluated after 13 days
In short: as §1

[6] = test system: velvetleaf (Abutilon theophrasti); assay: Test G Pre-Emergence Protocol; conditions: Abutilon theophrasti, pre-emergence, 312 h, evaluated after 13 days
In short: as §1

[7] = test system: barnyardgrass (Echinochloa crus-galli); assay: Test G Post-Emergence Protocol; conditions: Echinochloa crus-galli, post-emergence, 312 h
In short: (§2)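 Damage was rated 13 days after treatment from 0 (none) to 100 (plant killed). Compound was applied as a spray at 15.625, 62.5 or 250 g/ha in 50:50 acetone/water containing 0.5% Tween 20, onto 8-day-old potted plants kept in a glasshouse (24/16 °C, 14 h light, 65% humidity).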

corn (Zea mays) [8] = assay: Test G Post-Emergence Protocol; conditions: Zea mays, post-emergence, 312 h
In short: as §2

[9] = test system: giant foxtail (Setaria faberi); assay: Test G Post-Emergence Protocol; conditions: Setaria faberi, post-emergence, 312 h
In short: as §2

[10] = test system: ivy-leaved morning glory (Ipomoea hederacea); assay: Test G Post-Emergence Protocol; conditions: Ipomoea, post-emergence, 312 h
In short: as §2

[11] = test system: redroot pigweed (Amaranthus retroflexus); assay: Test G Post-Emergence Protocol; conditions: Amaranthus retroflexus, post-emergence, 312 h
In short: as §2

[12] = test system: velvetleaf (Abutilon theophrasti); assay: Test G Post-Emergence Protocol; conditions: Abutilon theophrasti, post-emergence, 312 h
In short: as §2

Cc1conc1NC(=O)[C@@H]1C(=O)N(C)C[C@H]1c1ccc(C(F)(F)F)cc1 (racemic) [Compound 1553]
0%: pest or weed control at 15.625 g/ha ([1]; 15.625 g ai/ha, read-out: Barnyard grass damage rating (100=total damage to plant; 0=no damage to plant)) | pest or weed control at 62.5 g/ha ([1]; 62.5 g ai/ha, 100=total damage to plant, 0=no damage to plant, read-out: plant damage rating, Barnyardgrass) | pest or weed control at 250 g/ha ([1]; 250 g ai/ha, read-out: Barnyardgrass damage rating (100=total damage to plant; 0=no damage to plant)) | plant injury at 15.625 g/ha (corn (Zea mays) [2]; 15.625 g ai/ha, read-out: Corn damage rating (100=total damage to plant; 0=no damage to plant)) | plant injury at 62.5 g/ha (corn (Zea mays) [2]; 62.5 g ai/ha, 100=total damage to plant, 0=no damage to plant, read-out: plant damage rating, Corn) | plant injury at 250 g/ha (corn (Zea mays) [2]; 250 g ai/ha, read-out: Corn damage rating (100=total damage to plant; 0=no damage to plant)) | pest or weed control at 15.625 g/ha ([3]; 15.625 g ai/ha, read-out: Foxtail, Giant damage rating (100=total damage to plant; 0=no damage to plant)) | pest or weed control at 62.5 g/ha ([3]; 62.5 g ai/ha, 100=total damage to plant, 0=no damage to plant, read-out: plant damage rating, Foxtail, Giant) | pest or weed control at 250 g/ha ([3]; 250 g ai/ha, read-out: Foxtail, Giant damage rating (100=total damage to plant; 0=no damage to plant)) | pest or weed control at 62.5 g/ha ([4]; 62.5 g ai/ha, 100=total damage to plant, 0=no damage to plant, read-out: plant damage rating, Morningglory, Ivy-leaved) | pest or weed control at 250 g/ha ([4]; 250 g ai/ha, read-out: Morningglory, Ivy-leaved damage rating (100=total damage to plant; 0=no damage to plant)) | pest or weed control at 15.625 g/ha ([5]; 15.625 g ai/ha, read-out: Pigweed, Redroot damage rating (100=total damage to plant; 0=no damage to plant)) | pest or weed control at 62.5 g/ha ([5]; 62.5 g ai/ha, 100=total damage to plant, 0=no damage to plant, read-out: plant damage rating, Pigweed, Redroot) | pest or weed control at 250 g/ha ([5]; 250 g ai/ha, read-out: Pigweed, Redroot damage rating (100=total damage to plant; 0=no damage to plant)) | pest or weed control at 15.625 g/ha ([6]; 15.625 g ai/ha, read-out: Velvetleaf damage rating (100=total damage to plant; 0=no damage to plant)) | pest or weed control at 62.5 g/ha ([6]; 62.5 g ai/ha, 100=total damage to plant, 0=no damage to plant, read-out: plant damage rating, Velvetleaf) | pest or weed control at 250 g/ha ([6]; 250 g ai/ha, read-out: Velvetleaf damage rating (100=total damage to plant; 0=no damage to plant)) | pest or weed control at 15.625 g/ha ([7]; 15.625 g ai/ha, evaluated after 13 days (100=total damage to plant; 0=no damage to plant), read-out: Barnyardgrass damage rating) | pest or weed control at 62.5 g/ha ([7]; 62.5 g ai/ha, evaluated after 13 days, read-out: Barnyardgrass damage rating (100=total damage to plant; 0=no damage to plant)) | pest or weed control at 250 g/ha ([7]; 250 g ai/ha, evaluated after 13 days, read-out: damage to plant, Barnyardgrass (100=total damage to plant; 0=no damage to plant)) | plant injury at 15.625 g/ha (corn (Zea mays) [8]; 15.625 g ai/ha, evaluated after 13 days (100=total damage to plant; 0=no damage to plant), read-out: Corn damage rating) | plant injury at 62.5 g/ha (corn (Zea mays) [8]; 62.5 g ai/ha, evaluated after 13 days, read-out: Corn damage rating (100=total damage to plant; 0=no damage to plant)) | plant injury at 250 g/ha (corn (Zea mays) [8]; 250 g ai/ha, evaluated after 13 days, read-out: damage to plant, Corn (100=total damage to plant; 0=no damage to plant)) | pest or weed control at 15.625 g/ha ([9]; 15.625 g ai/ha, evaluated after 13 days (100=total damage to plant; 0=no damage to plant), read-out: Foxtail, Giant damage rating) | pest or weed control at 62.5 g/ha ([9]; 62.5 g ai/ha, evaluated after 13 days, read-out: Foxtail, Giant damage rating (100=total damage to plant; 0=no damage to plant)) | pest or weed control at 250 g/ha ([9]; 250 g ai/ha, evaluated after 13 days, read-out: damage to plant, Foxtail, Giant (100=total damage to plant; 0=no damage to plant)) | pest or weed control at 15.625 g/ha ([10]; 15.625 g ai/ha, evaluated after 13 days (100=total damage to plant; 0=no damage to plant), read-out: Morningglory, Ivy-leaved damage rating) | pest or weed control at 62.5 g/ha ([10]; 62.5 g ai/ha, evaluated after 13 days, read-out: Morningglory, Ivy-leaved damage rating (100=total damage to plant; 0=no damage to plant)) | pest or weed control at 250 g/ha ([10]; 250 g ai/ha, evaluated after 13 days, read-out: damage to plant, Morningglory, Ivy-leaved (100=total damage to plant; 0=no damage to plant)) | pest or weed control at 15.625 g/ha ([11]; 15.625 g ai/ha, evaluated after 13 days (100=total damage to plant; 0=no damage to plant), read-out: Pigweed, Redroot damage rating) | pest or weed control at 62.5 g/ha ([11]; 62.5 g ai/ha, evaluated after 13 days, read-out: Pigweed, Redroot damage rating (100=total damage to plant; 0=no damage to plant)) | pest or weed control at 250 g/ha ([11]; 250 g ai/ha, evaluated after 13 days, read-out: damage to plant, Pigweed, Redroot (100=total damage to plant; 0=no damage to plant)) | pest or weed control at 15.625 g/ha ([12]; 15.625 g ai/ha, evaluated after 13 days (100=total damage to plant; 0=no damage to plant), read-out: Velvetleaf damage rating) | pest or weed control at 62.5 g/ha ([12]; 62.5 g ai/ha, evaluated after 13 days, read-out: Velvetleaf damage rating (100=total damage to plant; 0=no damage to plant)) | pest or weed control at 250 g/ha ([12]; 250 g ai/ha, evaluated after 13 days, read-out: damage to plant, Velvetleaf (100=total damage to plant; 0=no damage to plant))
